What was measured:
recombinant human ALDH-1 = target: T1, recombinant human ALDH-1 (Homo sapiens, UniProt P00352); experiment: ALDH-1 inhibition assay; assay type: biochemical; settings: 60 min pre-incubation; 10 μM = highest concentration tested; read-out: Enzymatic Assays IC50 ALDH-1
T1 sequence (P00352 1-501): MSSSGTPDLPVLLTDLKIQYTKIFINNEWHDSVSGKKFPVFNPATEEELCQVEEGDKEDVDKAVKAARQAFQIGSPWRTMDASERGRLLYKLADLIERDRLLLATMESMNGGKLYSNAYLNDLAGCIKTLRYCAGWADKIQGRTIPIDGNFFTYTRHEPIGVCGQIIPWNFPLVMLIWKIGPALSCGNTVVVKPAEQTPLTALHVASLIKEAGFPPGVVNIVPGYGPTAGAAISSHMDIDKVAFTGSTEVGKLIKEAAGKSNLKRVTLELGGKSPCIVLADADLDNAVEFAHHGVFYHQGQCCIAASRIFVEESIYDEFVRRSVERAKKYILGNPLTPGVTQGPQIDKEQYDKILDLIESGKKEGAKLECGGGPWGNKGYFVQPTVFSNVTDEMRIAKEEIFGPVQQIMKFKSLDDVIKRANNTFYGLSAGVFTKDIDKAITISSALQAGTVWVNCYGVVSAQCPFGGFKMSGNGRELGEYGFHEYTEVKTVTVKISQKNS
Description: B. ALDH-1 inhibition assay: The ALDH-1 reaction mixture used in the assay contained 100 μM formaldehyde, 2.5 mM NAD+, 20 mM NaCl, 10 mM MgCl2, 1 mM dithiothreitol (DTT; reducing agent), and 50 nM recombinant human ALDH-1 in 50 mM Hepes buffer, pH 7.5 in a final volume of 10 μL using 384-well Corning 3820 plates. After 60 min of pre-incubation of the test ALDH-2 inhibitor compound with ALDH-1, the reaction was started by adding NAD+ and formaldehyde and the assay reaction mixture was allowed to proceed for 60 minutes. Activity of the ALDH-1 enzyme was determined by monitoring NADH formation using Perkin-Elmer Envision Reader with excitation and emission wavelengths set at 340 and 460 nm, respectively.

recombinant human ALDH-2 = target: T2, recombinant human ALDH-2 (Homo sapiens, UniProt P05091); experiment: ALDH-2 inhibition assay; assay type: biochemical; settings: 60 min pre-incubation; 10 μM = highest concentration tested; read-out: Enzymatic Assays IC50 ALDH2
T2 sequence (P05091 18-517): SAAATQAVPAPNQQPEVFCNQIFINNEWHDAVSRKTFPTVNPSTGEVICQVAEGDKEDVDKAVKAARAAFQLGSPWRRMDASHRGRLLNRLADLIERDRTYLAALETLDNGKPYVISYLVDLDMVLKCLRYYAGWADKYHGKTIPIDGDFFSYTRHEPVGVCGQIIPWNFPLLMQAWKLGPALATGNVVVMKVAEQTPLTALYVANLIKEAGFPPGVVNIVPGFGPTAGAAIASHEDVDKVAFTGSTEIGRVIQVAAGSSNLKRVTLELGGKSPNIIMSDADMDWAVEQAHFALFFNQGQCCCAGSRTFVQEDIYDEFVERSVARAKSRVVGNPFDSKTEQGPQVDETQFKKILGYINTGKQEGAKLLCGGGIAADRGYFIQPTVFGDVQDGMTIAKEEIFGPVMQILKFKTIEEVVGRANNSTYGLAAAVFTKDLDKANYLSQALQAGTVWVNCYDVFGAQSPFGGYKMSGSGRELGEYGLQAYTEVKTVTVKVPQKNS
Description: A. ALDH-2 inhibition assay: The ALDH-2 reaction mixture used in the assay contained 125 μM formaldehyde, 75 μM NAD+, 20 mM NaCl, 10 mM MgCl2, and 20 nM recombinant human ALDH-2 in 50 mM Hepes buffer, pH 7.5 in a final volume of 10 μL using 384-well Corning 3820 plates. After 60 min of pre-incubation of the test ALDH-2 inhibitor compound with ALDH-2, the reaction was started by adding NAD+ and formaldehyde and the assay reaction mixture was allowed to proceed for 60 minutes. Activity of the ALDH-2 enzyme was determined by monitoring NADH formation using Perkin-Elmer Envision Reader with excitation and emission wavelengths set at 340 and 460 nm, respectively.

HepaRG spheroids = experiment: HepaRG 3D spheroid assay; assay type: cell-based; settings: for Ratio MEC to ALDH2: HepaRG spheroid MEC divided by ALDH-2 IC50; for HepaRG 3D Spheroid MEC: minimum effective concentration crossing vehicle control threshold of cell health marker, 100 μM = highest concentration tested
Excerpt: See e.g., Walker et al., “The evolution of strategies to minimise the risk of human drug-induced liver injury (DILI) in drug discovery and development,” (2020) Archives of Toxicology, Vol. 94: 2559-2585, which is hereby incorporated by reference herein in its entirety. […] In applying the HepaRG spheroid assay analysis to determining the hepatoxic liability of ALDH-2 inhibitor compounds, consideration is made of the binding to plasma protein and the limitations to CNS penetration due to the blood-brain barrier.
E. HepaRG® 3D spheroid assay: The HepaRG 3D spheroid assay is described in Walker et al., “The evolution of strategies to minimise the risk of human drug-induced liver injury (DILI) in drug discovery and development,” (2020) Archives of Toxicology, Vol. 94: 2559-2585. Briefly, HepaRG® cells were seeded into ultra-low adhesion 96-well black walled clear bottomed spheroid microplates. […] At the end of the incubation period, the spheroids were loaded with the relevant dye/antibody for each cell health marker (spheroid count, spheroid size, DNA structure, mitochondrial mass, mitochondrial membrane potential, oxidative stress, glutathione content, and cellular ATP). The plates were then scanned using an automated fluorescent cellular imager, ArrayScan® (Thermo Scientific Cellomics).

recombinant human ALDH-3 = target: T3, recombinant human ALDH-3 (Homo sapiens, UniProt P30838); experiment: ALDH-3 inhibition assay; assay type: biochemical; settings: 60 min pre-incubation; 10 μM = highest concentration tested; read-out: Enzymatic Assays IC50 ALDH-3
T3 sequence (P30838 1-453): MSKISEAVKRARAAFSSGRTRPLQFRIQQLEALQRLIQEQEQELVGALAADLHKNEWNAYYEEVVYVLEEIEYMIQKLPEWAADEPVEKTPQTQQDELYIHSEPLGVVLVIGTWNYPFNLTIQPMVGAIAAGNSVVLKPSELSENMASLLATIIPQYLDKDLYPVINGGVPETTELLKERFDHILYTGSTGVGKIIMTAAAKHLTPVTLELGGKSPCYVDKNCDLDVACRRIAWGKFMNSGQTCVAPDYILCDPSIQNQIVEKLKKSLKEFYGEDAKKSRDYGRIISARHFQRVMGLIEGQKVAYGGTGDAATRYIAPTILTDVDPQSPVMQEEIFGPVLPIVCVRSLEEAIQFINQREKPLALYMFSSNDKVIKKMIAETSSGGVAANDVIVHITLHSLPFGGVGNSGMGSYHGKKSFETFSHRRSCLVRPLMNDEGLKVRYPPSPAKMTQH
Description: ALDH-3 inhibition assay: The ALDH-3 reaction mixture used in the assay contained 200 μM benzaldehyde, 2.5 mM NAD+, 20 mM NaCl, 10 mM MgCl2, and 10 nM recombinant human ALDH-3 in 50 mM Hepes buffer, pH 7.5 in a final volume of 10 μL using 384-well Corning 3820 plates. After 60 min of pre-incubation of the test ALDH-2 inhibitor compound with ALDH-3, the reaction was started by adding NAD+ and benzaldehyde and the assay reaction mixture was allowed to proceed for 60 minutes. Activity of the ALDH-3 enzyme was determined by monitoring NADH formation using Perkin-Elmer Envision Reader with excitation and emission wavelengths set at 340 and 460 nm, respectively.

| Compound | IC50 (recombinant human ALDH-1) | IC50 (recombinant human ALDH-2) | Ratio MEC to ALDH2 (HepaRG spheroids) | HepaRG 3D Spheroid MEC (HepaRG spheroids) | IC50 (recombinant human ALDH-3) |
| --- | --- | --- | --- | --- | --- |
| Cc1nccc(Br)c1C(=O)NCc1ccc(-c2[nH]c(=O)ccc2F)cc1 [(1g), 4-Bromo-N-(4-(3-fluoro-6-oxo-1,6-dihydropyridin-2-yl)benzyl)-2-methylnicotinamide] | > 10 µM | 0.028 µM | 1668 | 46.7 µM | > 10 µM |
| Cc1cccc(Cl)c1C(=O)NCc1ccc(-c2cccc(=O)[nH]2)cc1 [(1a), 2-Chloro-6-methyl-N-(4-(6-oxo-1,6-dihydropyridin-2-yl)benzyl)benzamide] | > 10 µM | 0.078 µM | 133 | 10.4 µM | > 10 µM |
| O=C(NCc1ccc(-c2cccc(=O)[nH]2)cc1)c1ccccc1Cl [(1b), 2-Chloro-N-(4-(6-oxo-1,6-dihydropyridin-2-yl)benzyl)benzamide] | > 10 µM | 0.137 µM | >730 | No Effect | > 10 µM |
| Cc1nccc(Cl)c1C(=O)NCc1ccc(-c2cccc(=O)[nH]2)cc1 [(1c), 4-Chloro-2-methyl-N-(4-(6-oxo-1,6-dihydropyridin-2-yl)benzyl)nicotinamide] | > 10 µM | 0.128 µM | 90 | 11.5 µM | > 10 µM |
| Cc1cccc(Cl)c1C(=O)NCc1ccc(-c2cccc(=O)[nH]2)nc1 [(1k), 2-Chloro-6-methyl-N-((6′-oxo-1′,6′-dihydro-[2,2′-bipyridin]-5-yl)methyl)benzamide] | > 10 µM | 0.01 µM | 2100 | 21.0 µM | > 10 µM |
| O=C(NCc1ccc(-c2cccc(=O)[nH]2)nc1)c1ccccc1Cl [(1l), 2-chloro-N-((6′-oxo-1′,6′-dihydro-[2,2′-bipyridin]-5-yl)methyl)benzamide] | > 10 µM | 0.118 µM | 50 | 5.95 µM | > 10 µM |

— US12637427B2, “ALDH-2 inhibitor compounds and methods of use” (Amygdala Neurosciences, Inc., priority 2022, dated 2026)
